Consider 2 molecules from patent US11897849B1, “N′-(2-(5-phenyl-1,3,4-oxadiazol-2-ylthio)acetoxy)-1-naphthimidamide as antimicrobial compound” (KING FAISAL UNIVERSITY, priority 2023, dated 2024).

Data set [1] has as its system Chrysosporium keratinophilum. Kind of data set: Agar plate disc-diffusion, antifungal. It is filed as cell-based. The method, then:
(§1) The agar plate disc-diffusion method was applied. Sterilized filter papers (6 mm in diameter) were wetted with 10 μL of a solution of N′-(2-(5-phenyl-1,3,4-oxadiazol-2-ylthio)acetoxy)-2-naphthimidamide (3) to be tested, containing 10 mg/mL in DMSO, and the discs were allowed to air dry. The discs were then placed onto the surface of agar plates (nutrient agar for bacteria and Sabouraud's dextrose agar for fungi) seeded with the test organism. Each plate contained 15 of the agar medium, previously seeded with 0.2 mL of the broth culture of each organism pre-grown for 18 hours. The plates were incubated at 37° C. for 48 hours and 72 hours for fungi. The inhibition zones were measured in mm. Discs impregnated with DMSO were used as a control, and their inhibition zone was subtracted from the tested compound's actual inhibition zone.
A general note: In agar diffusion tests the substance spreads into inoculated agar from a disc or well.

In data set [2] the test system is Aspergillus flavus. Kind of data set: Agar plate disc-diffusion, antifungal. The format is cell-based. How it is done: as §1, with “Sterilized filter papers (6 mm in diameter) were wetted with 10 μL of a solution of N′-(2-(5-phenyl-1,3,4-oxadiazol-2-ylthio)acetoxy)-2-naphthimidamide (3) to be tested, containing 10 mg/mL in DMSO, and the discs were allowed to air dry.” left out

Data set [3] relates to Bacillus cereus. Briefly: Agar plate disc-diffusion, antibacterial. It is filed as cell-based. How it is done: as §1, with “Sterilized filter papers (6 mm in diameter) were wetted with 10 μL of a solution of N′-(2-(5-phenyl-1,3,4-oxadiazol-2-ylthio)acetoxy)-2-naphthimidamide (3) to be tested, containing 10 mg/mL in DMSO, and the discs were allowed to air dry.” left out
In data set [4] the test system is Escherichia coli. Briefly: Agar plate disc-diffusion, antibacterial. The format is cell-based. The method, then:
as §1, with “Sterilized filter papers (6 mm in diameter) were wetted with 10 μL of a solution of N′-(2-(5-phenyl-1,3,4-oxadiazol-2-ylthio)acetoxy)-2-naphthimidamide (3) to be tested, containing 10 mg/mL in DMSO, and the discs were allowed to air dry.” left out

The subject of data set [5] is Pseudomonas aeruginosa. Kind of data set: Agar plate disc-diffusion, antibacterial. The format is cell-based. How it is done: as §1, with “Sterilized filter papers (6 mm in diameter) were wetted with 10 μL of a solution of N′-(2-(5-phenyl-1,3,4-oxadiazol-2-ylthio)acetoxy)-2-naphthimidamide (3) to be tested, containing 10 mg/mL in DMSO, and the discs were allowed to air dry.” left out

Data set [6] deals with Staphylococcus aureus. Kind of data set: Agar plate disc-diffusion, antibacterial. It is filed as cell-based. How it is done: as §1, with “Sterilized filter papers (6 mm in diameter) were wetted with 10 μL of a solution of N′-(2-(5-phenyl-1,3,4-oxadiazol-2-ylthio)acetoxy)-2-naphthimidamide (3) to be tested, containing 10 mg/mL in DMSO, and the discs were allowed to air dry.” left out

The mark [7] stands for this setting: column A (key only in Table 1: 10,000 μL).
Where [8] appears, read: column B (key only in Table 1: 30.000 μL).
Where [9] appears, read: column C (key only in Table 1: 50,000 μL).
[10] abbreviates: B = concentration of comp. = 30.000 μL.
Setting [11] is: C = concentration of comp. = 50,000 μL.
Where [12] appears, read: A = concentration of comp. = 10,000 μL.

With `N/C(=N\OC(=O)CSc1nnc(-c2ccccc2)o1)c1cccc2ccccc12` [Compound 3, N′-(2-(5-phenyl-1,3,4-oxadiazol-2-ylthio)acetoxy)-1-naphthimidamide], the melting point is 177 to 178 °C. In addition, the inhibition zone in data set [1] (setting [7]) was determined as 29 mm. For the same molecule, the inhibition zone in data set [1] (setting [8]) is on record as 37 mm. Further, in data set [1] (setting [9]), the inhibition zone came to 43 mm. For the same molecule, in data set [2] (setting [7]), the inhibition zone is listed as 15 mm. Further, the inhibition zone in data set [2] (setting [8]) was found to be 22 mm. Besides, the inhibition zone in data set [2] (setting [9]) turned out to be 30 mm. In addition, the inhibition zone in data set [3] (A = concentration of comp.) is 19 mm. In addition, the inhibition zone in data set [3] (setting [10]) was determined as 26 mm. This molecule also registered an inhibition zone in data set [3] (setting [11]) of 35 mm. The molecule also registered an inhibition zone in data set [4] (setting [12]) of 35 mm. Further, the inhibition zone in data set [4] (setting [10]) is 39 mm. In data set [4] (setting [11]), this molecule returned an inhibition zone of 45 mm. For the same molecule, the inhibition zone in data set [5] (setting [12]) worked out at 22 mm. In data set [5] (setting [10]), this molecule registered an inhibition zone of 30 mm. Also, the inhibition zone in data set [5] (setting [11]) was found to be 37 mm. Also, in data set [6] (setting [12]), the inhibition zone is on record as 29 mm. Besides, the inhibition zone in data set [6] (setting [10]) was determined as 35 mm. For the same molecule, the inhibition zone in data set [6] (setting [11]) turned out to be 44 mm.
As to `O=C(O)c1cn(C2CC2)c2cc(N3CCNCC3)c(F)cc2c1=O` [Cip., ciprofloxacin, reference compound], the inhibition zone in data set [3] (A = concentration of comp.) is recorded as 29 mm; in data set [3] (setting [10]), 30 mm; in data set [3] (setting [11]), 42 mm; in data set [4] (setting [12]), 30 mm; in data set [4] (setting [10]), 39 mm; in data set [4] (setting [11]) it was 60 mm. Moreover, the inhibition zone amounted to 29 mm in data set [5] (setting [12]); 30 mm in data set [5] (setting [10]); 53 mm in data set [5] (setting [11]); 43 mm in data set [6] (setting [12]); 44 mm in data set [6] (setting [10]); 53 mm in data set [6] (setting [11]).

One may read the melting point as the temperature of the solid-liquid transition.
